In patent US20070089847A1, “Anti-microbial paper products having a substituted 1,2-dihydroquinoline” (Novus International, Inc., priority 2005, published 2007):

Experiments:
Format in all cases: cell-based
[1] = system: Aspergillus niger ATCC 9642 and Aspergillus flavus ATCC 9643; test: In vitro disk assay of antifungal properties, agar plates containing test agent (Example 3); conditions: 48 hours at 25° C.
Experimental: In this assay, paper disks were soaked in a fungal solution and placed on the surface of agar plates containing different concentration of the test agent. The radius of fungal growth radiating from each disk was considered indicative of the degree of inhibition by the agent relative to a control.
The test agents were diluted in DMSO or water and tested at several different concentrations. The test agents were added to the agar solution after sterilization, but prior to solidification. […] The plates were incubated for 48 hours at 25° C. The zones of fungal growth (or no growth) were analyzed and the minimum total inhibitory concentration (%) was estimated for each agent.

[2] = system: Aspergillus niger ATCC 9642, Aspergillus flavus ATCC 9643, and Chaetomium globosum ATCC 6205; test: ASTM D 2020 fungal resistance test of Santoquin with Kathon 893 as control biocide (Example 2); conditions: for Observed Fungal Growth after 14 Days incubation at 28° C.: replicates 1-3
Experimental: One biocide sample, labeled Santoquin® was tested for fungal resistance using the ASTM D 2020 Standard Test Method for Mildew (Fungus) Resistance of Paper and Paperboard protocol. This test method was designed for the qualitative determination of mildew (fungus) resistance of paper and paperboard, particularly those types that have been given a fungus resistant treatment. Specific test conditions applied to this project are described below, but at all times the ASTM D 2020 test protocol was strictly followed.
The Santoquin® biocide was diluted with DMSO and tested at two different concentrations: 0.1% and 1.0%. The biocide Kathon 893 was diluted to 0.1% and 1.0% in water and used as a control biocide. DMSO was used as a control diluent. The fungal inoculum was comprised of three different species: Aspergillus niger ATCC 9642, Aspergillus flavus ATCC 9643, and Chaetomium globosum ATCC 6205.
Glass fiber filter paper was treated with two different concentrations (0.1% and 1.0%) of Santoquin® and allowed to dry overnight. The filter paper carriers, tested in triplicate, were placed in Petri dishes on mineral salts agar and inoculated with the fungal inoculum. The samples were incubated at 28° C. for 2 weeks and examined daily during the first week of incubation for the growth of the test organisms.
(§1) If no growth was observed on a sample after the first week of incubation, the sample was incubated for an additional seven days. […] If, after two weeks, there was no detectable growth of test organisms, the sample was considered fungus resistant.

[3] = system: Aspergillus niger ATCC 9642, Aspergillus flavus ATCC 9643, and Chaetomium globosum ATCC 6205; test: ASTM D 2020 fungal resistance test of five biocides on treated glass fiber filter paper (Example 1); conditions: for Observed Fungal Growth after 14 Days incubation at 28° C., 1: replicate 1; for Observed Fungal Growth after 14 Days incubation at 28° C., 2: replicate 2; for Observed Fungal Growth after 14 Days incubation at 28° C., 3: replicate 3
Experimental: Five different biocides at varying concentrations were tested for fungal resistance using the ASTM D 2020 Standard Test Method for Mildew (Fungus) Resistance of Paper and Paperboard protocol. This test method was designed for the qualitative determination of mildew (fungus) resistance of paper and paperboard, particularly those types that have been given a fungus resistant treatment. Specific test conditions applied to this project are described below, but at all times the ASTM D 2020 test protocol was strictly followed.
All five biocides (Santoquin®, HMTBA-Cu, BIOX-AUSD, Tox-Guard*Dry, and Metasol-TK 100) were tested at three different concentrations (200, 400, and 600 ppm). Santoquin®, HMTBA-Cu, and BIOX-AUSD were diluted in dimethyl sulfoxide (DMSO), while Tox-Guard*Dry and Metasol-TK100 were diluted in water. DMSO was used a control diluent. The fungal inoculum was comprised of three different species: Aspergillus niger ATCC 9642, Aspergillus flavus ATCC 9643, and Chaetomium globosum ATCC 6205.
Glass fiber filter paper was treated with the individual test biocides at the respective concentrations listed in Table 1 and allowed to dry overnight. The filter paper carriers, tested in triplicate, were placed in Petri dishes on mineral salts agar and inoculated with the fungal inoculum. The samples were incubated at 28° C. for 2 weeks and examined daily during the first week of incubation for the growth of the test organisms.
as §1

[4] = both concentrations (0.1% and 1.0%)
[5] = all three concentrations (200, 400, and 600 ppm)

Compound	Minimum Total Inhibitory Concentration (%) [1] [%]	Observed Fungal Growth after 14 Days incubation at 28° C. ([2]; 0.1%)	Observed Fungal Growth after 14 Days incubation at 28° C. ([2]; 1.0%)	fungal growth at the end of the two weeks [2, 4]	fungal resistance classification in the ASTM D 2020 test [2, 4]	fungal growth at the end of two weeks ([3]; 200 ppm)	fungal resistance classification in the ASTM D 2020 test ([3]; 200 ppm)	Observed Fungal Growth after 14 Days incubation at 28° C., 1 ([3]; 200 ppm)	Observed Fungal Growth after 14 Days incubation at 28° C., 2 ([3]; 200 ppm)	Observed Fungal Growth after 14 Days incubation at 28° C., 3 ([3]; 200 ppm)	fungal growth at the end of two weeks ([3]; 400 and 600 ppm)	fungal resistance classification in the ASTM D 2020 test ([3]; 400 and 600 ppm)	Observed Fungal Growth after 14 Days incubation at 28° C., 1 ([3]; 400 ppm)	Observed Fungal Growth after 14 Days incubation at 28° C., 2 ([3]; 400 ppm)	Observed Fungal Growth after 14 Days incubation at 28° C., 3 ([3]; 400 ppm)	Observed Fungal Growth after 14 Days incubation at 28° C., 1 ([3]; 600 ppm)	Observed Fungal Growth after 14 Days incubation at 28° C., 2 ([3]; 600 ppm)	Observed Fungal Growth after 14 Days incubation at 28° C., 3 ([3]; 600 ppm)	fungal growth at the end of the two weeks [3, 5]	fungal resistance classification in the ASTM D 2020 test [3, 5]
CCOc1ccc2c(c1)C(C)=CC(C)(C)N2 [Santoquin, 6-ethoxy-1,2-dihydro-2,2,4-trimethylquinoline]	>0.5	No growth	No growth	no fungal growth	fungal resistant	fungal growth	fungus non-resistant	Growth	Growth	Growth	no fungal growth	fungal resistant	No Growth	No Growth	No Growth	No Growth	No Growth	No Growth	–	–
CSCCC(O)C(=O)[O-].CSCCC(O)C(=O)[O-].[Cu+2] (stereo not drawn) [Mintrex Cu, Cu(HMTBA)2]	0.5	–	–	–	–	–	–	Growth	Growth	Growth	–	–	Growth	Growth	Growth	Growth	Growth	Growth	fungal growth	fungus non-resistant
